Earlier results, collected in PMC8261488, “Contraceptive progestins with androgenic properties stimulate breast epithelial cell proliferation” (EMBO Molecular Medicine, 2021).

Test system: women
Settings: women taking androgenic progestins; ref Rossouw et al, 2002; cited from earlier work

## CC(=O)O[C@]1(C(C)=O)CC[C@H]2[C@@H]3C[C@H](C)C4=CC(=O)CC[C@]4(C)[C@H]3CC[C@@]21C [MPA]
  breast cancer risk: elevated breast cancer risk
